This is an account of results in patent US9926369B2, “Methods for treating hepatocellular cancer by administering an anti-Ang-2 antibody” (Regeneron Pharmaceuticals, Inc., priority 2009, dated 2018).

In experiment [1] the test system is COLO 205 (Human Colorectal Adenocarcinoma Cell Line) tumors. The experiment is described as follows: COLO 205 mouse tumor model. The experiment is classed as in vivo, mice. How it is done:
Briefly, 2×10^6COLO 205 cells in 100 μl of serum-free medium were injected subcutaneously into the flank of 6-8 week old male NCr nude mice (Taconic, Hudson, N.Y.). After tumor volumes reached an average of about 150 mm^3, mice were randomized into groups for treatment with antibody or Fc protein. Mice in each treatment group were administered an anti-Ang-2 antibody or Fc protein at a concentration of 4 mg/kg via intraperitoneal injection twice per week for approximately two weeks. Tumor volumes were measured twice per week over the course of the experiment and tumor weights were measured upon excision of tumors at the conclusion of the experiment. Averages (mean+/−standard deviation) of tumor weight and growth were calculated for each treatment group. “Avg. Tumor Growth” represents the average growth from the time of treatment initiation (when tumors were approximately 150 mm^3). Percent decrease of tumor weight and growth are calculated from comparison to Fc protein measurements.
A similar experiment was carried out to assess the effect of H1H685P, in particular, on COLO 205 tumor growth. Briefly, 2×10^6 COLO 205 cells in 100 μl of serum-free medium were implanted subcutaneously into the right hind flank of 9-11 week-old male SCID CB17 mice. When the tumors reached ˜125 mm^3, mice were randomized into 5 groups (n=7-8 mice/group) and treated twice per week with Fc protein (15 mg/kg), H1H685P (5 or 25 mg/kg) or Control II (5 or 25 mg/kg) for a period of 19 days. Tumor volumes were measured twice per week over the course of the experiment and tumor weights were measured upon excision of tumors at the end of the experiment. Averages of tumor weight and growth from the beginning of treatment were calculated for each group. Percent decrease of tumor weight and growth are calculated from comparison to the Fc control group.
To determine the effect of combining an anti-Ang-2 antibody with a VEGF inhibitor on the growth of COLO 205 xenografts, 2×10^6 cells were implanted subcutaneously into the right hind flank of 6-8 week-old female SCID mice. When the tumors reached an average volume of ˜350 mm^3, mice were randomized into 4 groups (n=6 mice/group) and treated with: human Fc protein (7.5 mg/kg), H1H685P (5 mg/kg), VEGF Trap (see U.S. Pat. No. 7,087,411) (2.5 mg/kg) or the combination of H1H685P+VEGF Trap. Mice were given a total of 3 doses over 10 days of treatment. Tumor volumes were measured twice per week over the course of the experiment. Averages of tumor growth from the start of treatment (mean+/−standard deviation) were calculated for each treatment group. Percent decrease of tumor growth was calculated from comparison to the Fc control group.
To test the effect of H1H685P in combination with a chemotherapeutic agent on tumor growth, 2.5×10^6 COLO 205 tumor cells were implanted subcutaneously into the right hind flank of 8-9 week-old male SCID mice. When the tumors reached an average volume of ˜150 mm^3 (day 17 after implantation), mice were randomized into 4 groups (n=5 mice/group) and treated as follows: the first group was treated sc with 15 mg/kg hFc and intraperitoneally (ip) with 5-FU vehicle; the second group was treated sc with 15 mg/kg of H1H685P; the third group was treated ip with 75 mg/kg of 5-FU; the fourth group was treated with the combination of 15 mg/kg H1H685P sc plus 75 mg/kg 5-FU ip. Mice received a total of three treatments, administered every 3-4 days. Tumor volumes were measured twice per week over the course of the experiment. Average (mean+/−standard deviation) tumor growth from the beginning of treatment until day 38 was calculated for each group. Percent decrease of tumor growth was calculated from comparison to the control group.

The subject of experiment [2] is MMT tumors. Nature of the experiment: MMT tumor growth in SCID mice. The experiment is classed as in vivo. The following applies: H1H685P 12.5 mg/kg, VEGF Trap 5 mg/kg. On the procedure:
To provide additional evidence of combination efficacy, the effect of the H1H685P+VEGF Trap combination on the growth of MMT tumors was assessed. 0.5×10^6 MMT cells were implanted subcutaneously into the right hind flank of 6-8 week-old female SCID mice. […] The Fc and H1H685P groups were given 3 doses over 9 days. The VEGF Trap and combination groups were given 4 doses over 12 days. Tumor volumes were measured twice per week over the course of the experiment and tumor weights were measured upon excision of tumors at the end of the experiment (due to their large size, tumors from the Fc and H1H685P groups were collected 3 days before tumors from the VEGF Trap and combination groups). Averages (mean+/−standard deviation) of tumor growth from the beginning of treatment and of tumor weight were calculated for each group. Percent decrease of tumor weight and growth are calculated from comparison to the Fc control group.

In experiment [3] the test system is COLO 205 tumor vessel perfusion. Nature of the experiment: Tumor perfusion by contrast-enhanced micro-ultrasound, COLO 205 tumors. The format is in vivo, mice. Particulars: treated for 24 hrs. On the procedure:
To determine whether the combination of H1H685P+VEGF Trap has a greater effect on tumor vessel function than the single agents, a micro-ultrasound (VisualSonics' Vevo 770 imaging system) was used to assess changes in tumor perfusion. COLO 205 tumors were grown to ˜125 mm^3 and mice were then treated for 24 hrs with H1H685P, VEGF Trap or the combination of both agents. Following treatment, tumor vessel perfusion was determined based on contrast-enhanced micro-ultrasound 2D image acquisition and analysis of a “wash-in” curve, which represents the amount of contrast agent entering the tumor. Average (mean+/−standard deviation) tumor perfusion was calculated for each group. Percent decrease was calculated from comparison to the Fc control group.

Where [4] appears, read: COLO 205, male SCID mice, H1H685P 15 mg/kg sc, 5-FU 75 mg/kg ip, three treatments, until day 38.
[5] abbreviates: COLO 205, female SCID mice, H1H685P 5 mg/kg, VEGF Trap 2.5 mg/kg, 3 doses over 10 days.

Consider `O=c1[nH]cc(F)c(=O)[nH]1` [Antibody 5-FU, 5-FU, reference compound], for which, in experiment [1] (setting [4]), the “% Decrease in Tumor Growth” value was 45% and the “Avg Tumor Growth” value is 313 ± 60 mm^3.

Take “VEGF Trap: VEGF-inhibiting fusion protein: VEGF receptor extracellular domains fused to the Fc portion of human IgG1 [reference compound]”: in experiment [1] (setting [5]), the “% Decrease in Tumor Growth” value stood at 117% and the “Avg Tumor Growth” value is on record as −62 ± 44 mm^3. Besides, the “Tumor regression (in words)” value in experiment [1] (COLO 205, female SCID mice, end vs beginning of treatment) is listed as “tumor regression was observed”. In experiment [2], the “% Decrease in Tumor Growth” value stood at 60%, the “% Decrease in Tumor Weight” value is 44%, the “Avg Tumor Growth” value was 536 ± 179 mm^3 and the “Avg Tumor Weight” value worked out at 0.889 ± 0.141 g. The “Relative Tumor Perfusion” value in experiment [3] (mean ± SD) is reported as 6.99 ± 1.36. Also, the “% Decrease in Tumor Perfusion” value in experiment [3] (vs Fc control) came out at 14%.
